{
  "source": "paper PMC11124870",
  "about": "“Effect of Antioxidants in Medicinal Products on Intestinal Drug Transporters” (Pharmaceutics, 2024)",
  "key": {"BCRP [1]": {"biological_target": "T1, BCRP (Homo sapiens, UniProt Q9UNQ0)", "T1 sequence (Q9UNQ0 1-655)": "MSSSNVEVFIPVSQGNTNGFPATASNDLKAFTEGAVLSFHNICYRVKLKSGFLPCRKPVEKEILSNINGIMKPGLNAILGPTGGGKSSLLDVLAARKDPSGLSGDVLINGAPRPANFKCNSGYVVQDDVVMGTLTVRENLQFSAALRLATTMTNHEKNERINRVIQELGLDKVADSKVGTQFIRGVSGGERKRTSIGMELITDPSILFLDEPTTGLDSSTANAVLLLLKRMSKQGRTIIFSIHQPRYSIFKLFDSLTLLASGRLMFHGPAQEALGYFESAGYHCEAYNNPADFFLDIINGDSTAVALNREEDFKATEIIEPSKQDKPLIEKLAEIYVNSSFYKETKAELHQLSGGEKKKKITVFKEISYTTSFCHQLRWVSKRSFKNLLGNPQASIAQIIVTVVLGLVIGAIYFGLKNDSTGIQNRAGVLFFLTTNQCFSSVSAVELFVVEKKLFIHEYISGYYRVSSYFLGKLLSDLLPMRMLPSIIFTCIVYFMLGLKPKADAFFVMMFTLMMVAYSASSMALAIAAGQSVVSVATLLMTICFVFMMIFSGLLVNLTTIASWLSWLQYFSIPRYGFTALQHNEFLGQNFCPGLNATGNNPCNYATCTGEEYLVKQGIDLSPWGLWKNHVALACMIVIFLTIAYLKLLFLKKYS", "experiment": "Vesicular transport assay, 3H-CCK8 uptake in BCRP membrane vesicles", "format": "biochemical", "set-up": "purchased ThermoFisher Scientific GM0008; host or cells: Sf9 membrane vesicles", "method": "The vesicular transport assay was performed using Spodoptera frugiperda 9 (Sf9) membrane vesicles overexpressing human P-gp or BCRP, as reported previously with minor modifications. In brief, Isoplate 96-well flat-bottom white plates were preincubated with HBSS containing 0.5 mg/mL BSA on an orbital shaker in a 37 °C incubator at 90 rpm for 60 min followed by washing with HBSS. The assay mixture (75 µL/well) contained a probe substrate and either vehicle control, a known inhibitor of P-gp or BCRP, or an antioxidant, in vesicle uptake buffer (50 mM MOPS-Tris, pH 7.0 + 70 mM KCl + 7.5 mM MgCl2) prewarmed to 37 °C. After addition of the assay mixture, 5 μL/well (5 μg/μL stock concentration of the vesicles) of vesicles overexpressing human P-gp or BCRP was added. Uptake assays were initiated by adding 20 μL of either 25 mM adenosine triphosphate (ATP) or 25 mM adenosine monophosphate (AMP) to a final concentration of 5 mM. Plates were incubated at 37 °C for 20 min with orbital shaking (90 rpm). After 20 min, the uptake was quenched by adding 150 μL of ice-cold wash buffer (40 mM MOPS-Tris, pH 7.0 + 70 mM KCl) to each well, and the mixture was transferred to a 96-well filtration plate. Vacuum was applied, and the vesicles were washed three times with wash buffer. Vesicles were then lysed with 100 µL of MicroScint-20."}, "BCRP [2]": {"biological_target": "T1, BCRP", "experiment": "Transwell transport assay, basal-to-apical prazosin flux in MDCK-hBCRP-cMDR1-KO cells", "settings": "BHA 178 µM on both sides; 3H-prazosin 1 µM; 4 h", "method": "The transport assay was performed using MDCK-hMDR1-cMDR1-KO, MDCK-cMDR1-KO, and MDCK-hBCRP-cMDR1-KO as reported previously with minor modifications. In brief, 133,000 cells were seeded onto a Transwell membrane insert, a semipermeable polyethylene terephthalate membrane. During the differentiation process, the medium volume in the apical chamber was kept at 300 μL, while the basal chamber contained 1000 μL. The cells were allowed to differentiate for 7–9 days at 37 °C in a humidified incubator with 5% CO2. Before starting transporter assays, the integrity of the cell monolayer was checked using lucifer yellow permeability assays. […] From the basal chamber, 100 μL samples were collected for fluorescence measurements using GloMax® Explorer with a 475 nm excitation filter and a 500–550 nm emission filter to calculate the percent permeability per well.\nTo assess the flux of digoxin or prazosin from the basal to apical side, the cells were washed twice with HBSS. […] All apical and basal samples were mixed with scintillation fluid (EcoLite(+)™ liquid scintillation cocktail), and their radioactivity was measured using liquid scintillation counting (Beckman LS6500). […] For data analysis, the disintegration per minute counts of digoxin or prazosin from the apical samples were converted to picomoles using radioactivity measured in the substrate solution."}, "OATP2B1": {"biological_target": "T2, OATP2B1 (Homo sapiens, UniProt O94956)", "T2 sequence (O94956 1-709)": "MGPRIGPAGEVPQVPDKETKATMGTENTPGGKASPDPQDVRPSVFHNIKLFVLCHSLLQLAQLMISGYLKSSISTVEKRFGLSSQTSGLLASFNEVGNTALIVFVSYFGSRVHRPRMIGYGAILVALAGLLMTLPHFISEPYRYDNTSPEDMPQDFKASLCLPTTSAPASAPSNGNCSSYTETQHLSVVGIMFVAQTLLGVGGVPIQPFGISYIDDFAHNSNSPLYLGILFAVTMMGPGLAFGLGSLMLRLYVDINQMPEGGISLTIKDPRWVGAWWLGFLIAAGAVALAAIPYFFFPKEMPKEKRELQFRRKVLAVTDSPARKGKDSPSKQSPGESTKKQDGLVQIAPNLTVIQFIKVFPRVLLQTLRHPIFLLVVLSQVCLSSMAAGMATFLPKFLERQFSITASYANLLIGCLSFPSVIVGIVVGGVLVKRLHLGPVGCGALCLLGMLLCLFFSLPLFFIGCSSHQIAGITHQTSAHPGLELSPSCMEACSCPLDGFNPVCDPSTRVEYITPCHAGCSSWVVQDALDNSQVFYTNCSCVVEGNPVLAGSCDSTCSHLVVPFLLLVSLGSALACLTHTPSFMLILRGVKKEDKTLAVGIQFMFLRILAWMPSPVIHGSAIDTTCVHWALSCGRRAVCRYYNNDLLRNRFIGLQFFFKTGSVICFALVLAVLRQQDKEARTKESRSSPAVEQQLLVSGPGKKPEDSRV", "experiment": "3H-valsartan uptake inhibition in HEK-293-OATP2B1 cells", "settings": "read-out: IC50 OATP2B1, valsartan uptake, substrate 3H-valsartan, three independent experiments", "protocol": "The uptake transporter assay was performed as reported previously with minor modifications [15]. A day before the uptake assay, Isoplate 96-well plates were coated with poly-D-lysine in PBS with calcium and magnesium and washed with PBS. […] An assay mixture of ^3H-estrone sulfate, a known inhibitor of OATP2B1, or an antioxidant was prepared and incubated in a 37 °C incubator for 10 min. The cells were washed with ice-cold HBSS three times and incubated with MicroScint fluid on a shaker for 1 h for cell lysis. Radioactivity was measured by liquid scintillation counting with a MicroBeta^2® microplate counter. […] On the day of experiment, cells were washed twice with 0.4 mL of HBSS per well and then pre-incubated for 10–20 min in 0.4 mL of HBSS. […] Uptake of ^3H-valsartan was stopped after 15 min by washing three times with ice-cold HBSS. Cells were lysed in 750 µL of lysis buffer (0.1 N NaOH and 0.1% SDS in double-distilled water) per well while shaking for 60 min. A total of 690 µL of the lysate from each well was then added to 2.5 mL of EcoLite scintillation fluid. The radioactivity was determined on a LS6500 Scintillation Counter (Beckman Coulter). Protein concentration was measured with a Pierce™ BCA protein assay kit. The radioactivity in each well was corrected for protein concentration. All values were determined in triplicate, and the final values are expressed as % uptake relative to negative control (1% DMSO).\nAntioxidants were screened at a concentration of 200 μM."}, "[3]": {"settings": "Table S1; source not stated; cited from earlier work"}},
  "note": "Values joined by “and” are separate entries in the source; they are usually repeats but may differ in a detail not shown here. Identical values can stand only once.",
  "data": [
    {"compound": "COc1ccc(O)cc1C(C)(C)C", "note": "[Butylated hydroxyanisole (BHA), 2-tert-Butyl-4-hydroxyanisole]", "values": [
      {"measurement": "Inhibition of BCRP", "setting": "BCRP [1]; 200 µM, 3H-CCK8", "result": "at least 50%"},
      {"measurement": "% Uptake of 3H-CCK8 BCRP", "setting": "BCRP [1]; antioxidant 200 µM, uptake with DMSO set as 100%, mean ± SD, three replicates, membrane vesicles", "result": "46.7 ± 5.5", "unit": "%"},
      {"measurement": "IC50", "setting": "BCRP [1]; substrate 3H-CCK8, mean ± SD of three independent experiments", "result": "206 ± 14", "unit": "µM"},
      {"measurement": "Inhibition of prazosin efflux (basal to apical)", "setting": "BCRP [2]", "result": "did not inhibit prazosin efflux"},
      {"measurement": "IC50", "setting": "OATP2B1", "result": "19 µM and 19.1 µM"},
      {"measurement": "LogP", "setting": "[3]", "result": 3.2}
    ]}
  ]
}
